Experimental data published in paper PMC11613437, “Prioritization of Eleven-Nineteen-Leukemia Inhibitors as Orally Available Drug Candidates for Acute Myeloid Leukemia” (Journal of Medicinal Chemistry, 2024).

Assays:
MV4-11 cells = assay: Anti-proliferation assay, MV4-11; format: cell-based; conditions: Homo sapiens, MV4-11, 336 h, approximately 2 weeks, read-out: inhibition of MV4-11 cell proliferation
Description: Cell proliferation assays were carried out in a 96-well tissue culture plate at 2 × 10^4 cells/well for all cell lines except in 200 μL with a compound added as 1:1000 dilution of DMSO stocks in triplicate. Culture density was determined every 3–4 days using the countess automated cell counter, after which 2 × 10^4 live cells were reseeded in fresh media and compound. The cumulative cell count was achieved by back calculation.

[1] = In vitro metabolic stability assay in HLM; format: in vitro ADME, human; conditions: for CLint scaled at 1 h: read-out: Liver Microsome CLint, pred
Description: At 0, 5, 15, 30, 45, and 60 min, 200 μL acetonitrile (with the internal standard diclofenac as 10 μg/mL) was added to terminate the reaction, the remaining compound was analyzed by HPLC-MS/MS.

[2] = Body weight of xenografted NSG mice under treatment; format: in vivo
From the text: Animal studies were approved by the Texas A&M’s Institutional Animal Care and Use Committees. The 5 week-old female NSG mice (NOD.Cg-PrkdcscidIl2rgtm1Wjl/SzJ, Jackson Laboratory #005557) were ordered and kept under pathogen-free conditions for 1 week with free access to food and water after arrival for acclimation. Tumor models in these mice were then built by engrafting 1 × 10^6 MOLM-13-Luc cells (BPS Bioscience, 78372) through tail vein injection. Tumors were allowed to grow for 6 days, and then applied for treatment by oral gavage daily (day 0 was the beginning of treatment). Dosage of 200 or 400 mg/kg (vehicle of 5% DMSO, 45% PEG400, 2.5% Tween 80, and 47.5% water) was applied. Tumor growth was evaluated by bioluminescent imaging (BLI) using an IVIS In Vivo Imaging System by intraperitoneal injection of 150 mg/kg D-Luciferin potassium salt (MedChemExpress, HY-12591B). Their body weights were recorded every 2–3 days. Surviving mice were counted every day and the mortality was calculated. No animal was excluded from any of the analyses. The investigators were not blinded to allocation during experiments and outcome assessment.

NLuc-ENL YEATS = biological target: T1, NLuc-ENL YEATS (Homo sapiens, UniProt Q03111); assay: ENL-NanoBRET inhibitor competitive assay; format: cell-based; conditions: HEK293T cells stably expressing NLuc-ENL YEATS, 1 μM Tracer 2, 2 h; mean ± SD, n = 3
T1 construct: DNA encoding the ENL YEATS domain (aa 1–148) was cloned into an NLuc containing plasmid; expressed in transfected cells
T1 sequence (Q03111 1-148): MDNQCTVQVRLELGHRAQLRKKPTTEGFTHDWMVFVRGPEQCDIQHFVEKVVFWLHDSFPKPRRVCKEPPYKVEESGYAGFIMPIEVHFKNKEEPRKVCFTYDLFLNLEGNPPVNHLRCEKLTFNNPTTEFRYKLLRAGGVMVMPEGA
Description: Approximately 1.8 × 10^4 HEK293T cells (100 μL) stably expressing NLuc-ENL YEATS were seeded into a white nonbinding 96-well assay plate and incubated overnight at 37 °C in a humidified 5% CO2 atmosphere. After removal of the medium, the cells were added with a tracer (with or without excess of unlabeled compound) in the Opti-MEM with 0.1% DMSO. After incubation at 37 °C for 2 h the assay plate was equilibrated at room temperature for 15 min. For BRET detection, the NanoGlo Substrate and the extracellular NanoLuc inhibitor (Promega, N2160) were diluted with Opti-MEM as described in protocol to afford detection solution. 50 μL of the detection solution was added per well and the plate was incubated for 3 min at room temperature. The donor emission was measured at 450 nm and the acceptor emission at 610 nm using a BioTek SYNERGY neo2 multimode reader. The BRET ratio was calculated according to the following formula: BRET ratio = [(acceptorsample/donorsample) – (acceptorno-tracer control/donorno-tracer control)] × 1000.
Sample procedures were followed for cell seeding as described in the previously described tracer affinity assay. After removal of the medium, the cells were added with a tracer in the medium (1.1 μM, 100 μL) and varied concentrations of a test compound in 0.1% DMSO (10 μL). The plate was thoroughly mixed on an orbital shaker for 15 s at 900 rpm. Then the cells were incubated at 37 °C, 5% CO2 for 2 h for BRET ratio detection as described previously.

[3] = Cell toxicity assay (CCK-8), Jurkat; format: cell-based; conditions: human, Jurkat cells; for IC50 at 8 days: 8 day treatment, n = 3, read-out: CC50 Jurkat (Cellular IC50, 8-days incubation)
Description: Approximately 1 × 10^4 JURKAT, MOLM-13, MV4-11 and HEK293T cells in RPMI 1640 (no phenol red) (100 μL) were added to a 96-well plate and treated with DMSO or a compound at indicated concentrations for 72 h or 8 days. Cell viability was measured using the CCK-8 kit (Abcam, ab228554) according to the manufacturer’s instructions.

MOLM-13 and MV4-11 cells = assay: Cell cycle analysis; format: cell-based; conditions: 72 h treatment
Description: For cell cycle analysis, 5 × 10^6 cells were cultured at 2 mL/well in a 6-well plate treated in a ratio of 1:1000 with compound stocks in DMSO or 1:1000 with DMSO in triplicate. Cell cycle staining was performed by using a cell cycle analysis kit (Abcam, ab287852) and treated according to the protocol provided. The signal was analyzed by flow cytometry and the cytometry results were analyzed by CytExpert software.

[4] = human, human liver microsomes, pH 7.4, HLM 0.5 mg/mL, NADPH 1 mM, mean ± SD, n = 3
[5] = human, human liver microsomes, pH 7.4, HLM 0.5 mg/mL, NADPH 1 mM, mean ± SD, n = 3, read-out: Liver Microsome t1/2

## CC(C)[C@H]1CCN1Cc1cc2cnc(NC(=O)c3ccc4nncn4c3)cc2[nH]1 [SR-C-107 (R), (R)-N-(2-((2-Isopropylazetidin-1-yl)methyl)-1H-pyrrolo[3,2-c]pyridin-6-yl)-[1,2,4]triazolo[4,3-a]pyridine-6-carboxamide]
MV4-11 cells
  inhibition at 1 µM: ~70%
[1]; HLM 0.5 mg/mL, NADPH 1 mM, mean ± SD, n = 3
  Liver Microsome t1/2: 6.9717 ± 0.6597 h
[1]; [4]
  CLint scaled at 1 h: 4.18 mL/min/kg
[1]; [5]
  half-life: 6.97 h
[2]; 200 mg/kg PO QD
  tolerability / body weight loss: no significant body weight loss observed
NLuc-ENL YEATS
  IC50: 0.59 µM
[3]
  IC50 at 8 days: > 64 µM
MOLM-13 and MV4-11 cells
  cell cycle: G1 phase: increase in the G1 phase

## CC(C)C1CCN1Cc1ccc(CNC(=O)c2ccc3nncn3c2)cc1 (stereo not shown) [inhibitor 13]
MV4-11 cells
  inhibition at 1 µM: 41%
MV4-11 cells; 10 μM
  inhibition at 10 µM: 75%
[1]; [4]
  CLint scaled at 1 h: 4.09 mL/min/kg
[1]; [5]
  half-life at 1 h: 7.11 ± 0.663 h
[1]; in the presence of NADPH, 60 min
  parent compound remaining after 60 min incubation in HLM: over 90%
[2]; 200 mg/kg PO QD
  tolerability / body weight loss: no significant body weight loss observed
[2]; 400 mg/kg PO QD
  tolerability / body weight loss: without significant body weight loss until day 15
NLuc-ENL YEATS
  IC50: 4.29 µM
[3]; 72 h treatment (superscript a)
  CC50 at 72 h: > 64 µM
[3]
  IC50 at 8 days: 22 ± 1.79 µM
MOLM-13 and MV4-11 cells
  cell cycle: G1 phase: increase in the G1 phase
